24 compounds from patent EP4227307A1 (Genzyme Corporation, priority 2022, dated 2023) can be followed below.

Counter-ions that a name gives are not always drawn.

The assay deals with T1, human recombinant 6His-Nterm SHP2 full-length (Thr2-Arg593) (Homo sapiens, UniProt Q06124).
T1 construct: 6His-Nterm SHP2 full-length (Thr2-Arg593, R&D system); 6His (N); purchased R&D system
T1 sequence (Q06124 2-593): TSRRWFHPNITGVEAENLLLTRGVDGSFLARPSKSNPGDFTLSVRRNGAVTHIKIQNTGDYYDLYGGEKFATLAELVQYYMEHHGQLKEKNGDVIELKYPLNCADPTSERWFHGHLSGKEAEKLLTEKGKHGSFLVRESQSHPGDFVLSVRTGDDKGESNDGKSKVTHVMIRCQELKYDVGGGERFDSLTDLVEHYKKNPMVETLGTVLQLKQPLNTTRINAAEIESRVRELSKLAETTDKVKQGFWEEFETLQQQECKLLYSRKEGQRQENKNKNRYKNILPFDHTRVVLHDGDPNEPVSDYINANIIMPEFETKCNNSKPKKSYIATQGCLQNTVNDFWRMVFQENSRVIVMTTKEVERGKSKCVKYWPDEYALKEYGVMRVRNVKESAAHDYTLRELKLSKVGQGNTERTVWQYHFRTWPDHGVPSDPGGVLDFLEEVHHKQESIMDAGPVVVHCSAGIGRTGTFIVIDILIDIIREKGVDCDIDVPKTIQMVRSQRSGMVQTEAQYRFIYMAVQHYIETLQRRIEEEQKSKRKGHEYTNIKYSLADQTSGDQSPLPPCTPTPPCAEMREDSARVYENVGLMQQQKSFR
Nature of the assay: SHP2 Phosphatase Assay (DiFMUP fluorescence). The assay is classed as biochemical. The settings on record: SHP2 0.2 nM pre-incubated with 100 nM bi-phosphorylated activating peptide; compound 1000-0.05 nM, 30 min pre-incubation; DiFMUP 20 µM, 45 min, room temperature; 10-concentration dose-response. The method in brief:
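SHP2 (0.2 nM) preactivated ≥10 min with 100 nM bis-phosphorylated peptide, then 30 min with compound (10 concentrations, 1000–0.05 nM) at room temperature, pH 7.2 HEPES buffer with DTT. DiFMUP (20 µM, added solution) reacted 45 min, pervanadate-stopped; fluorescence 350/450 nm. IC50 by 4-parameter logistic fit.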
As for `COc1ccc2c(c1)[C@@H](N)C1(CCN(c3nc(C)c(-c4ccnc(C)c4F)n4nccc34)CC1)C2` [Compound 118, (1S)-1'-[7-(3-fluoro-2-methyl-4-pyridyl)-6-methyl-pyrazolo[1,5-a]pyrazin-4-yl]-6-methoxy-spiro [indane-2,4'-piperidine]-1-amine hydrochloride], the IC50 is 4 nM.

In the case of `Cc1nc(N2CCC3(CC2)Cc2ncccc2[C@H]3N)c2ccnn2c1-c1ccc(N(C)C)nc1` [Compound 176, (5S)-1'-[7-[6-(dimethylamino)-3-pyridyl]-6-methyl-pyrazolo [1 ,5-a]pyrazin-4-yl]spiro[5,7-dihydrocyclopenta[b]pyridine-6,4'-piperidine]-5-amine], the IC50 came to 6 nM.

Turning to `Cc1nc(N2CCC3(CC2)Cc2ncccc2[C@H]3N)c2ccnn2c1-c1ccncc1Cl` [Compound 100, (5S)-1'-[7-(3-chloro-4-pyridyl)-6-methyl-pyrazolo[1,5-a]pyrazin-4-yl]spiro[5,7-dihydrocyclopenta[b]pyridine-6,4'-piperidine]-5-amine hydrochloride], the IC50 worked out at 13 nM.

Regarding `Cc1nc(N2CCC3(CC2)Cc2ncccc2[C@H]3N)c2ccnn2c1-c1ccsc1` [Compound 194, (5S)-1'-[6-methyl-7-(3-thienyl)pyrazolo[1,5-a]pyrazin-4-yl]spiro[5,7-dihydrocyclopenta[b]pyridine-6,4'-piperidine]-5-amine], the IC50 came to 5 nM.

Take `Cc1nc(N2CCC3(CC2)Cc2ncccc2[C@H]3N)c2ccnn2c1Sc1ccnc(N)c1Cl` [Compound 232, (5S)-1'-[7-[(2-amino-3-chloro-4-pyridyl)sulfanyl]-6-methyl-pyrazolo[1,5-a]pyrazin-4-yl]spiro[5,7-dihydrocyclopenta[b]pyridine-6,4'-piperidine]-5-amine]: the IC50 was determined as 4 nM.

Consider `Cc1nc(N2CCC3(CC2)Cc2ncccc2[C@H]3N)c2ccnn2c1-c1ccnc(C2CC2)c1Cl` [Compound 40, (5S)-1'-[7-(3-chloro-2-cyclopropyl-4-pyridyl)-6-methyl-pyrazolo[1,5-a]pyrazin-4-yl]spiro[5,7-dihydrocyclopenta[b]pyridine-6,4'-piperidine]-5-amine], for which the half-maximal inhibitory concentration (IC50) came out at 10 nM.

Take `COc1ccc2c(n1)[C@@H](N)C1(CCN(c3nc(C)c(-c4cccc(F)c4Cl)n4nccc34)CC1)C2` [Compound 215, (7S)-1'-[7-(2-chloro-3-fluoro-phenyl)-6-methyl-pyrazolo[1,5-a]pyrazin-4-yl]-2-methoxy-spiro[5,7-dihydrocyclopenta[b]pyridine-6,4'-piperidine]-7-amine]: the IC50 came out at 23 nM.

Regarding `N[C@@H]1c2cccnc2CC12CCN(c1ncc(-c3cnn4ccccc34)n3nccc13)CC2` [Compound 90, (5S)-1'-(7-pyrazolo[1,5-a]pyridin-3-ylpyrazolo[1,5-a]pyrazin-4-yl)spiro [5,7-dihydrocyclopenta[b]pyridine-6,4'-piperidine] -5-amine hydrochloride], the IC50 was determined as 13 nM.

Regarding `Cc1nc(N2CCC3(CC2)Cc2ncccc2[C@H]3N)c2c(F)cnn2c1-c1ccccc1` [Compound 143, (5S)-1'-(3-fluoro-6-methyl-7-phenyl-pyrazolo[1,5-a]pyrazin-4-yl)spiro[5,7-dihydrocyclopenta[b]pyridine-6,4'-piperidine]-5-amine hydrochloride], the IC50 was found to be 39 nM.

Turning to `Cc1nc(N2CCC3(CC2)Cc2ncccc2[C@H]3N)c2ccnn2c1-c1cccc(C(F)(F)F)c1F` [Compound 174, (5S)-1'-[7-[2-fluoro-3-(trifluoromethyl)phenyl] -6-methyl-pyrazolo[1,5-a]pyrazin-4-yl]spiro[5,7-dihydrocyclopenta[b]pyridine-6,4'-piperidine]-5-amine], the IC50 is 5 nM.

In the case of `Cc1nc(N2CCC3(CC2)Cc2ncccc2[C@H]3N)c2ccnn2c1-c1ccc2c(c1)CCO2` [Compound 188, (5S)-1'-[7-(2,3-dihydrobenzofuran-5-yl)-6-methyl-pyrazolo[1,5-a]pyrazin-4-yl]spiro[5,7-dihydrocyclopenta[b]pyridine-6,4'-piperidine]-5-amine], the IC50 was found to be 7 nM.

Regarding `COc1cc(-c2c(C)nc(N3CCC4(CC3)Cc3ncccc3[C@H]4N)c3ccnn23)c(F)cn1` [Compound 76, (5S)-1'-[7-(5-fluoro-2-methoxy-4-pyridyl)-6-methyl-pyrazolo [1,5-a]pyrazin-4-yl]spiro[5,7-dihydrocyclopenta[b]pyridine-6,4'-piperidine] -5-amine hydrochloride], the IC50 worked out at 72 nM.

With `Cc1nc(-c2c(C)nc(N3CCC4(CC3)Cc3ncccc3[C@H]4N)c3ccnn23)cs1` [Compound 158, (5S)-1'-[6-methyl-7-(2-methylthiazol-4-yl)pyrazolo[1,5-a]pyrazin-4-yl]spiro[5,7-dihydrocyclopenta[b]pyridine-6,4'-piperidine] -5-amine hydrochloride], the IC50 is 47 nM.

Consider `Cc1nccc(-c2c(C)nc(N3CCC4(CC3)Oc3ncccc3[C@H]4N)c3ccnn23)c1Cl` [Compound 15, (3R)-1'-[7-(3-chloro-2-methyl-4-pyridyl)-6-methyl-pyrazolo[1,5-a]pyrazin-4-yl]spiro[3H-furo[2,3-b]pyridine-2,4'-piperidine]-3-amine], for which the IC50 was found to be 20 nM.

As to `N[C@@H]1c2cccnc2CC12CCN(c1ncc(-c3cccc(F)c3Cl)n3nccc13)CC2` [Compound 87, (5 S)-1'-[7-(2-chloro-3-fluorophenyl)pyrazolo[1,5-a]pyrazin-4-yl]spiro [5,7-dihydrocyclopenta[b]pyridine-6,4'-piperidine] -5-amine hydrochloride], the IC50 came to 22 nM.

For `Cc1nc(N2CCC3(CC2)Oc2ccccc2[C@H]3N)c2ccnn2c1-c1cccc(Cl)c1Cl` [Compound 19, (3R)-1'-[7-(2,3-dichlorophenyl)-6-methyl-pyrazolo [1 ,5-a]pyrazin-4-yl]spiro[3H-benzofuran-2,4'-piperidine]-3-amine], the IC50 is 102 nM.

`Cc1nc(N2CCC3(CC2)Cc2c(F)cccc2[C@H]3N)c2ccnn2c1-c1ccccc1F` [Compound 64, (1S)-4-Fluoro-1'-[7-(2-fluorophenyl)-6-methyl-pyrazolo[1,5-a]pyrazin-4-yl]spiro[indane-2,4'-piperidine]-1-amine hydrochloride]: the IC50 came out at 46 nM.

Regarding `Cc1nc(N2CCC3(CC2)Cc2ccccc2[C@H]3N)c2ccnn2c1-c1cnoc1C` [Compound 150, (1S)-1'-[6-methyl-7-(5-methylisoxazol-4-yl)pyrazolo[1,5-a]pyrazin-4-yl]spiro[indane-2,4'-piperidine]-1-amine], the IC50 is 140 nM.

For the compound `Cc1cc2c(cn1)[C@@H](N)C1(CCN(c3nc(C)c(-c4ccccc4F)n4nccc34)CC1)C2` [Compound 60, (7S)-1'-[7-(2-fluorophenyl)-6-methyl-pyrazolo[1,5-a]pyrazin-4-yl]-3-methyl-spiro[5,7-dihydrocyclopenta[c]pyridine-6,4'-piperidine]-7-amine], the concentration for half-maximal inhibition (IC50) stood at 7 nM.

For `COc1ccc2c(c1)[C@@H](N)C1(CCN(c3nc(C)c(-c4ccccc4F)n4nccc34)CC1)C2` [Compound 11, (1S)-1'-[7-(2-fluorophenyl)-6-methyl-pyrazolo[1,5-a]pyrazin-4yl]-6-methoxy-spiro[indane-2,4'-piperidine]-1-amine hydrochloride], the IC50 is 23 nM.

For `Cc1nc(N2CCC3(CC2)Cc2c(F)cccc2[C@H]3N)c2ccnn2c1-c1cccc(F)c1F` [Compound 94, (1S)-1'-[7-(2,3-difluorophenyl)-6-methyl-pyrazolo[1,5-a]pyrazin-4-yl]-4-fluoro-spiro[indane-2,4'-piperidine]-1-amine formate], the IC50 was determined as 146 nM.

For `COc1ccc2c(c1)CC1(CCN(c3nc(C)c(-c4ccnc(C)c4Cl)n4nccc34)CC1)[C@@H]2N` [Compound 6, (1S)-1'-[7-(3-chloro-2-methyl-4-pyridyl)-6-methyl-pyrazolo[1,5-a]pyrazin-4-yl]-5-methoxy-spiro[indane-2,4'-piperidine]-1-amine], the IC50 worked out at 8 nM.

`COc1cc2c(cn1)CC1(CCN(c3nc(C)c(-c4ccccc4)n4nccc34)CC1)[C@@H]2N` [Compound 135, (5S)-3-methoxy-1'-(6-methyl-7-phenyl-pyrazolo[1,5-a]pyrazin-4-yl)spiro[5,7-dihydrocyclopenta[c]pyridine-6,4'-piperidine]-5-amine]: the IC50 worked out at 12 nM.

Take `Cc1nc(N2CCC3(CC2)Cc2ncccc2[C@H]3N)c2ccnn2c1-c1ccncc1` [Compound 70, (5S)-1'-[6-methyl-7-(4-pyridyl)pyrazolo[1,5-a]pyrazin-4-yl]spiro[5,7-dihydrocyclopenta[b]pyridine-6,4'-piperidine]-5-amine hydrochloride]: the IC50 was 73 nM.

What is called IC50 is the concentration that inhibits the measured activity by half.
